The test system of experiment [1] is RR-EAE mice. In words: De novo expression of doublecortin (BrdU+DCX+ cells) in SVZ and SGZ of RR-EAE mice. Format: in vivo. The text has this: FIGS. 10A-10B—The effect of SM1, SM7, SM9 and SM6 on de novo expression of neuroblasts marker doublecortin in the SVZ. FIG. 10A—Immunofluorescence images showing the labeling of BrdU and doublecortin (DCX) in the SVZ. Images were obtained using Zeiss 710 confocal microscope, coronal sections. LV, lateral ventricle, SVZ, subventricular zone. Scale bar for images: a, c, e, g, i, k, m, o=100 μm (magnification×10), and images: b, d, f, h, j, 1, n, p=20 μm (magnification×63). FIG. 10B: Quantification of BrdU^+ DOC^+ cells in the SVZ. Analysis was performed using image J software on 3 sections from each mouse (3 mice from each group, total n=9). Values are given as mean±SEM and the results of Student's t-test are represented as *p<0.05.
FIGS. 11A-11B—The effect of SM1, SM7, SM9 and SM6 on de novo expression of doublecortin in the SGZ. FIG. 11A: are immunohistochemical images showing the labeling of BrdU^+DCX^+ cells in the SGZ. Images were obtained using Olympus 8.1 microscope (magnification×10). FIG. 11B: Quantification of BrdU^+DCX^+ cells in the SGZ. Analysis was performed using image J software on 3 sections from each mouse (3 mice from each group, total n=9). Values are given as mean±SEM and the results of Student's t-test are represented as *p<0.05.
RR-EAE induced mice were intraperitoneally injected with 250 μg/mouse (Low-L) or 500 μg/mouse (High-H) of the small molecules SM1, SM7, SM9, SM6, or the corresponding vehicle. The SMs were injected each day starting on day 9 post immunization for 30 days. For immunohistochemical analysis, 3 mice of each group were intraperitoneally injected daily with bromo-2′-deoxyuridine (BrdU) starting from day 9 post immunization for 8 following days.
Next, the amount of BrdU DCX cells in the SGZ of mice was evaluated. FIGS. 11A-11B show immunohistochemical labeling of BrdU DCX cells in mice with EAE after treatment with the SMs or with vehicle.

Experiment [2] deals with P19 cells. In words: In vitro differentiation assay of P19 cells (MAP-2 positive neurons). Format: cell-based, murine. Particulars: for MAP-2+ cells: day 8; for effect on neuronal phenotype (number of MAP-2+ cells) vs. RA+BMP-2: RA + rhBMP-2 + SM at 0.625, 1.25 and 2.5 μM. The method, then:
P19 cells were grown in a-minimum essential medium (aMEM) (Gibco) containing 7.5% calf serum, 2.5% fetal calf serum, and 0.4 μl/ml penicillin—streptomycin (Gibco), at 37° C., 5% CO2. Cells were replenished with fresh medium every 48 h.
The medium, including RA, BMP supplements and SMs, was replenished after 48 h. After 4 days, aggregates which formed during RA treatment were dispersed enzymatically (0.05% v/v trypsin-0.02% v/v EDTA) and mechanically and plated in tissue culture grade dishes. At this stage, cells were cultured in RA-, BMP- and SM-free medium, which was refreshed every 48 h. MAP-2 positive neurons were examined at day 8 (i.e., day 4 post-RA treatment) by immunofluorescence. Briefly, at day 7, cells were re-cultured in 24 well-plates with cover slips at a final concentration of 5×10^4 cells/well. On day 8, cells were washed with PBS, fixed with PFA 4% for 15 min, permeabilized with 0.5% Triton Tx, blocked with 10% FCS, 0.1% BSA and 0.05% Tween for 30 min, and stained with MAP2 rabbit mAb (1:100, D5G1, Cell Signaling) for 1 hr. The second antibody step was performed by labeling with Alexa Fluor® 488-conjugated IgG antibody to rabbit for 1 h (1:1000; Molecular Probes USA).
Next, the effect of the small molecules on neurogenesis in a P19 differentiation model was measured. […] Neuronal differentiation is marked by the expression of the neuronal marker MAP-2, while the addition of BMP-2 reduces the levels of this marker. Addition of the murine anti-BMP-2/4 monoclonal antibody reverses the effect of BMP-2 and induces acquisition of neuronal phenotype. Thus, the effect of SM1, SM7 and SM9 on the expression of the neuronal marker MAP-2 in P19 cells was examined in the presence of RA and BMP-2. Three concentrations of the molecules were tested: 0.625 μM, 1.25 μM and 2.5 μM.

Where [3] appears, read: high dose (H) 500 μg/mouse i.p. daily from day 9 for 30 days.
Setting [4] is: low dose (L) 250 μg/mouse i.p. daily from day 9 for 30 days.
Setting [5] is: low dose (L) 250 μg/mouse i.p. daily.

“Also recorded” adds a separate entry of the source.

For `COC(=O)c1sccc1N/N=C(\C#N)S(=O)(=O)c1cccs1` [SM1, Methyl 3-[(2E)-2-[cyano(thiophen-2-ylsulfonyl)methylidene]hydrazinyl]thiophene-2-carboxylate], the “BrdU+DCX+ cells in the SVZ vs. vehicle” value in experiment [1] (setting [3]) and in experiment [1] (setting [4]) was “trend for increased induction” in each case. Besides, in experiment [2] (RA + rhBMP-2 + SM 2.5 μM), the “MAP-2+ cells” value stood at 62.2±3.9%. Further, the “effect on neuronal phenotype (number of MAP-2+ cells) vs. RA+BMP-2” value (shortened to “effect … (number of MAP-2+ cells) vs. RA+BMP-2”) in experiment [2] is on record as “reversed the effect of BMP-2; also recorded: induced neuronal phenotype at all examined concentrations”.

In the case of `O=C(Nc1cccc(C(F)(F)F)c1)c1ccc([N+](=O)[O-])o1` [SM6, N2-[3-(trifluoromethyl)phenyl)-5-nitro-2-furamide], the “BrdU+DCX+ cells in the SVZ vs. vehicle” value in experiment [1] (setting [3]) is “trend for increased induction”. Further, in experiment [1] (setting [5]), the “BrdU+DCX+ cells in the SGZ vs. vehicle” value is reported as “trend for increased”.

Consider `N#Cc1c(O)nsc1Nc1ccccc1C(F)(F)F` [SM7, 3-hydroxy-5-[2-(trifluoromethyl)aniline]isothiazole-4-carbonitrile], for which the “BrdU+DCX+ cells in the SGZ vs. vehicle” value in experiment [1] (setting [5]) is “trend for increased”. In addition, the “MAP-2+ cells” value in experiment [2] (RA + rhBMP-2 + SM 1.25 μM) was 76.1±3.1%; in experiment [2] (RA + rhBMP-2 + SM 2.5 μM) it was “No significant effect”. The “effect … (number of MAP-2+ cells) vs. RA+BMP-2” value in experiment [2] was “reversed the effect of BMP-2; also recorded: induced neuronal phenotype at both the low and the mild concentrations”.

Regarding `CS(=O)(=O)c1noc(-c2ccc(Cl)cc2)c1C#N` [SM9, 5-(4-chlorophenyl)-3-methylsulfonyl-1,2-oxazole-4-carbonitrile], the “BrdU+DCX+ cells in the SGZ vs. vehicle” value was “significant increased induction” in experiment [1] (high dose (H) 500 μg/mouse i.p. daily) and “trend for increased” in experiment [1] (setting [5]). Moreover, the “BrdU+DCX+ cells in the SVZ vs. vehicle” value in experiment [1] (setting [3]) is on record as “trend for increased induction”; in experiment [1] (setting [4]), “significant increase”. The “MAP-2+ cells” value in experiment [2] (RA + rhBMP-2 + SM 0.625 μM (low concentration)) is “not effective”; in experiment [2] (RA + rhBMP-2 + SM 1.25 μM) it was 76.4±12.6%; in experiment [2] (RA + rhBMP-2 + SM 2.5 μM), 80.6±10.0%. For the same compound, the “effect … (number of MAP-2+ cells) vs. RA+BMP-2” value in experiment [2] is on record as “reversed the effect of BMP-2”.

These data come from US11779565B2, “Small organic molecules for use in the treatment of neuroinflammatory disorders” (THE MEDICAL RESEARCH, INFRASTRUCTURE AND HEALTH SERVICES …, priority 2017, dated 2023).
